How the values were obtained:
11β-HSD2 protein = test: Immunoblot of 11β-HSD2 protein in prostate cancer cell lines; type: cell-based, human
Protocol: For protein analysis, immunoblots were performed as described previously. Li et al., J Clin Endocrinol Metab 98, E1189-1197 (2013). Briefly, total cellular protein was extracted with ice cold RIPA lysis buffer (Sigma-Aldrich) containing protease inhibitors (Roche). 30-50 μg protein was separated by 8% SDS-PAGE gel and then transferred to a nitrocellulose membrane (Millipore). After incubating with the anti-11β-HSD2 antibody (Santa Cruz; 1:3000), anti-11β-HSD1 antibody (Santa Cruz; 1:1000), GR antibody (BD Biosciences; 1:1000), anti-Erlin-2 antibody (Cell Signaling Technology: 1:1000) or anti-AMFR antibody (Proteintech; 1:1000) overnight at 4° C., the appropriate secondary antibody was incubated for 1 hour at room temperature. The chemiluminescent detection system (Thermo Scientific) was used to detect the bands with peroxidase activity. An anti-β-actin antibody (Sigma-Aldrich; 1:5000) was used as a control for sample loading.

AR-regulated transcripts = test: qPCR of AR-regulated transcripts; type: cell-based, human; conditions: LAPC4, 24 hours
Protocol: LAPC4 cells were treated with Enz for 36 days and then seeded into 12 well plates coated with poly-DL-ornithine at 50% confluence. After incubation overnight, the cells were transfected with 11β-HSD2-FLAG plasmid for 48 hours by using the TranslT®-2020 Transfection Reagent (Mirus) according to the protocol provided by the manufacturer, then maintained in phenol-red-free medium with 5% Charcoal:Dextran-stripped FBS for 48 hours before being treated with the indicated drugs. Total RNA was extracted with a GenElute Mammalian Total RNA miniprep kit (Sigma-Aldrich) and 1 μg RNA was reverse-transcribed to cDNA with the iScript cDNA Synthesis Kit (Bio-Rad). An ABI 7500 Real-Time PCR machine (Applied Biosystems) was used to perform the qPCR analysis, using iTaq Fast SYBR Green Supermix with ROX (Bio-Rad) in 96-well plates at a final reaction volume of 10 μl. The qPCR analysis was carried out in triplicate with suitable primers. Each mRNA transcript was quantitated by normalizing the sample values to RPLP0 and to vehicle treated cells (for steroid treated cells). All gene expression studies were repeated in independent experiments.

[1] = tested on: LAPC4 and VCaP CRPC xenografts; test: Mouse xenograft studies: tumor growth and progression-free survival; type: in vivo
Protocol: All mouse studies were performed under a protocol approved by the Institutional Animal Care and Use Committee (IACUC) of the Cleveland Clinic Lerner Research Institute. All NSG male mice (6-8 weeks old) were purchased from the Jackson Laboratory and the number of mice used in this study was based on previously published mouse xenograft studies by our lab that determined effects of steroid pathway inhibition/augmentation on xenograft growth. Mice were surgically orchiectomized and implanted with DHEA pellets to mimic human adrenal DHEA production in patients with CRPC. 1 week later, mice were prepared for cell injections.
For the evaluation of the 11β-HSD2 role in reversing enzalutamide resistance, either 10^7 vector control or 10^7 11β-HSD2 overexpressing LAPC4 or VCaP cells (100 μl in 50% matrigel and 50% growth media) were subcutaneously injected into mice. When tumors reached 100 or 150 mm^3 (length×width×height×0.52), for LAPC4 and VCaP xenografts, respectively, the mice were arbitrarily divided into 2 groups each for vector and 11β-HSD2 overexpressing cells: Enz diet 62.5 mg/kg and or chow alone groups. Tran et al., Science 324, 787-790 (2009). Based on the daily chow consumption, approximately 0.3125 mg Enz was consumed per mouse per day. Enz in chow and chow alone were obtained from Medivation. Tumor volume was measured every other day, and progression-free survival was assessed as time to 3-fold (LAPC4) or 1.5-fold (VCaP) increase in tumor volume (from 100 or 150 mm^3) from the time Enz or chow alone was initiated. The number of mice in the LAPC4 Vector/Ctrl, Vector/Enz, 11β-HSD2/Ctrl and 11β-HSD2/Enz groups were 9, 9, 10, and 11, respectively. The number of mice in the VCaP Vector/Ctrl, Vector/Enz, 11β-HSD2/Ctrl and 11β-HSD2/Enz groups were 6, 6, 5, and 8, respectively. Numbers of mice in each treatment group were determined by those that survived surgical procedures and had reached a tumor volume to initiate treatment.
For evaluation of the role of AMFR in reversing enzalutamide resistance, either 10^7 control or 10^7 AMFR knockdown LAPC4 cells (100 μl in 50% matrigel and 50% growth media) were subcutaneously injected into mice. The remaining procedures were performed as described above. The number of mice in the LAPC4 shCtrl/Enz and shAMFR/Enz groups were 6, and 10, respectively. Protein levels of 11β-HSD2 in the shCtrl and control or shAMFR LAPC4 xenografts were analyzed by immunoblot. Briefly, ˜40-50 mg xenograft tissue was minced into pieces and then added into soft tissue homogenizing CK14 tubes (Betin Technologies) with 150 μl RIPA buffer containing protease inhibitors. Xenograft tissues were homogenized with a homogenizer (Minilys, Betin Technologies) 6 times (40 seconds each time) at the highest speed. Tubes were incubated on the ice for 5-10 minutes between each homogenization to cool lysates. The lysates were then centrifuged for 30 minutes at 15,000×g and the supernatants were used for immunoblot analysis.

[2] = LAPC4 xenografts with forced 11β-HSD2 expression, enzalutamide in chow
[3] = enzalutamide-treated LAPC4 xenografts with stable AMFR knockdown

CNC(=O)c1ccc(N2C(=S)N(c3ccc(C#N)c(C(F)(F)F)c3)C(=O)C2(C)C)cc1F [enzalutamide]
11β-HSD2 protein expression (11β-HSD2 protein; AR-negative DU145 prostate cancer cell line): does not change 11β-HSD2 protein expression | 11β-HSD2 protein (11β-HSD2 protein; LAPC4): Loss of 11β-HSD2 protein | 11β-HSD2 protein (11β-HSD2 protein; MDA-PCa-2b): Loss of 11β-HSD2 protein | 11β-HSD2 protein (11β-HSD2 protein; VCaP): Loss of 11β-HSD2 protein | expression of AR-regulated genes (AR-regulated transcripts): suppression of AR-regulated genes | xenograft tumor growth ([1]; LAPC4 Vector xenografts, orchiectomized mice with DHEA, enzalutamide in chow): growth of Vector xenografts through enzalutamide therapy | progression-free survival [1, 2]: prolonged progression-free survival | xenograft tumor growth [1, 2]: significantly reversed enzalutamide-resistant growth | sensitivity of xenograft to treatment ([1]; VCaP xenografts with 11β-HSD2 expression): Reinstatement of sensitivity to enzalutamide treatment | progression-free survival [1, 3]: prolonged progression-free survival | xenograft tumor growth [1, 3]: suppressed xenograft growth

Source: patent US20180296531A1, “STIMULATION OF 11B-HSD2 EXPRESSION TO IMPROVE HORMONAL THERAPY OF STEROID-DEPENDENT DISEASE” (THE CLEVELAND CLINIC FOUNDATION, priority 2015, published 2018)
